Assay results published in ChEMBL document CHEMBL3580531, “Biotransformation of Curcumenol by Mucor polymorphosporus” (J Nat Prod, 2015).

Tested on: RAW264.7
Test: Antiinflammatory activity in mouse RAW264.7 cells assessed as inhibition of LPS-induced nitric oxide production after 1 day by Griess assay
Format: functional, cell-based
Conditions: RAW264.7, 24 h

| SMILES | IC50 [µM] |
| --- | --- |
| CC1=C[C@@]2(O)O[C@]3(CC2=C(C)C)[C@H]1[C@H](O)C[C@@H]3C | 18.5 |
| Cc1cc(=O)c(C(C)(C)O)cc2c1C(=O)C[C@@H]2C | 6.4 |
| Cc1cc(C(=O)O)cc2c1C(=O)C[C@@H]2C | 2.8 |
| CC1=C[C@]2(O)O[C@@]3(CC2=C(C)C)[C@@H](C)CC[C@@H]13 [CURCUMENOL] | 5.4 |

The remaining lines, values ahead:

| IC50 [µM] | SMILES |
| --- | --- |
| 9.6 | CC1=C[C@@]2(O)O[C@@]3(C/C2=C(/C)CO)[C@@H](C)CC[C@@H]13 |
| > 50 | CC(C)=C1C[C@@]23O[C@]1(O)C[C@](C)(O)[C@@H]2CC[C@@H]3C |
| 6.4 | CC(C)=C1C[C@@]23O[C@]1(O)C=C(CO)[C@@H]2CC[C@@H]3C |
| 14.1 | COc1ccc2c(c1)c(CC(=O)O)c(C)n2C(=O)c1ccc(Cl)cc1 [INDOMETHACIN] |
